In article PMC5658662 (Biochemistry, 2017):
Values joined by “and” are separate entries in the source; they are usually repeats but may differ in a detail not shown here. Equal values may be shown once. Read-outs that look alike come from different tables or passages of the source. Marks after values point to notes of the source that are not given here. Values belong to the compound of their own block, whether it stands above or below them.

Legend:
cytochrome P450 OleT [1] = biological target: T1, cytochrome P450 OleT (Jeotgalicoccus sp. ATCC 8456, UniProt E9NSU2); details: for maximal high-spin conversion: UV-vis titration, low- to high-spin conversion
cytochrome P450 OleT [2] = biological target: T1, cytochrome P450 OleT; assay type: biochemical; details: for % metabolized: 5 μM OleT, 500 μM fatty acid; for % metabolized / product distribution (%) alcohols: slow H2O2 addition; for product distribution (%) 1-alkene: determined from subtraction of product alcohols from the total FA metabolized; for alcohol regiospecificity α: share of alcohols hydroxylated at Cα; for alcohol regiospecificity β: share of alcohols hydroxylated at Cβ; for product distribution (%) alcohols: share of total product
cytochrome P450 OleT [3] = assay type: biochemical, Jeotgalicoccus sp. ATCC 8456
cytochrome P450 OleT [4] = biological target: T1, cytochrome P450 OleT; assay: Stopped flow transient kinetics of OleT:fatty acid complexes with H2O2; assay type: biochemical
cytochrome P450 OleT [5] = biological target: T1, cytochrome P450 OleT; assay type: biochemical
cytochrome P450 OleT [6] = biological target: T1, cytochrome P450 OleT; assay: Guaiacol oxidation to tetraguaiacol by fatty acid-activated OleT; assay type: biochemical; details: DA-d19 compared with protiated DA as decoy
cytochrome P450 OleT [7] = biological target: T1, cytochrome P450 OleT; details: ref [29], cited from earlier work
cytochrome P450 OleT [8] = biological target: T1, cytochrome P450 OleT; details: read-out: dissociation constant reported for EA; reported value; ref [2],[13]; cited from earlier work
cytochrome P450 OleT [9] = biological target: T1, cytochrome P450 OleT; details: in vitro; ref [2]–[4]; cited from earlier work
[10] = 5 μM OleT, 200 mM KPi pH 7.5, 200 mM NaCl, absorbance changes at 392 and 417 nm
[11] = in the presence of norcarane, 10 mM H2O2, 440 nm, 4 °C
[12] = in the absence of norcarane, 10 mM H2O2, 440 nm, 4 °C

SMILES: CCCCCC(=O)O [C6:0]
- Kd (cytochrome P450 OleT [1]; [10]): 164 ± 15 µM
- maximal high-spin conversion (cytochrome P450 OleT [1]): 19%

SMILES: CCCCCCCC(=O)O [C8:0]
- Kd (cytochrome P450 OleT [1]; [10]): 134 ± 11 µM
- maximal high-spin conversion (cytochrome P450 OleT [1]): 25%
- % metabolized (cytochrome P450 OleT [2]): 100%
- product distribution (%) 1-alkene (cytochrome P450 OleT [2]): 88.4 ± 0.4 ^b %
- alcohol regiospecificity α (cytochrome P450 OleT [2]): 11.3 ± 2.3% α
- alcohol regiospecificity β (cytochrome P450 OleT [2]): 89.0 ± 5.3% β
- product distribution (%) alcohols (cytochrome P450 OleT [2]): 11.6 ± 0.8%

- Kd (cytochrome P450 OleT [1]): 25 ± 8 µM
- maximal high-spin conversion (cytochrome P450 OleT [1]): 36%
- % metabolized (cytochrome P450 OleT [2]): 100%
- product distribution (%) 1-alkene (cytochrome P450 OleT [2]): 90.0 ± 0.8 ^b %
- alcohol regiospecificity β (cytochrome P450 OleT [2]): 100% β
- product distribution (%) alcohols (cytochrome P450 OleT [2]): 10.0 ± 0.8%
SMILES: CCCCCCCCCC(=O)O [C10:0, decanoic acid]

SMILES: CCCCCCCCCCCC(=O)O [C12:0, lauric acid]
- Kd (cytochrome P450 OleT [1]): 2.8 ± 0.4 µM
- maximal high-spin conversion (cytochrome P450 OleT [1]): 61%
- % metabolized (cytochrome P450 OleT [2]): 98.3 ± 0.2%
- alcohol regiospecificity α (cytochrome P450 OleT [2]): 7.0 ± 1.3% α
- alcohol regiospecificity α (cytochrome P450 OleT [2]; listed as LA): 7%
- alcohol regiospecificity β (cytochrome P450 OleT [2]): 71.5 ± 15.5% β
- alcohol regiospecificity γ (cytochrome P450 OleT [2]; share of alcohols hydroxylated at Cγ): 21.5 ± 4.4% γ
- product distribution (%) 1-alkene (cytochrome P450 OleT [3]; determined from direct quantitation): 61.4 ± 7.6 ^a %
- product distribution (%) alcohols (cytochrome P450 OleT [3]; slow H2O2 addition, share of total product): 38.6 ± 7.6%

SMILES: [2H]C([2H])([2H])C([2H])([2H])C([2H])([2H])C([2H])([2H])C([2H])([2H])C([2H])([2H])C([2H])([2H])C([2H])([2H])C([2H])([2H])C(=O)O [DA-d19, perdeuterated decanoic acid]
- Ole-I decay rate constant (cytochrome P450 OleT [4]; asymptote of RRT1 vs H2O2 plot, 4 °C): ~ 60 s^−1
- Ole-II decay rate constant (cytochrome P450 OleT [4]; independent of H2O2, 4 °C): ~10 s⁻¹
- product yields for radical clock substrates by decoy fatty acid (cytochrome P450 OleT [5]; comparison of decoy fatty acids): highest
- improvement of guaiacol oxidation rate (cytochrome P450 OleT [6]): approximately 5 fold

SMILES: CCCCCCCCCCCCCCCCCCCC(=O)O [EA, eicosanoic acid]
- Ole-II decay (cytochrome P450 OleT [7]; at 5 °C, decarboxylation of EA): ~ 10 s^−1
- substrate 2H KIE (kH/kD) for the decay of Ole-I (cytochrome P450 OleT [7]): > 8
- Kd (cytochrome P450 OleT [8]): < 1 µM
- chemoselectivity for 1-nonadecene production (cytochrome P450 OleT [9]): ≥ 95%

SMILES: [2H]C([2H])([2H])C([2H])([2H])C([2H])([2H])C([2H])([2H])C([2H])([2H])C([2H])([2H])C([2H])([2H])C([2H])([2H])C([2H])([2H])C([2H])([2H])C([2H])([2H])C([2H])([2H])C([2H])([2H])C([2H])([2H])C([2H])([2H])C([2H])([2H])C([2H])([2H])C([2H])([2H])C([2H])([2H])C(=O)O [EA-d39, perdeuterated eicosanoic acid]
- Ole-II decay rate constant (RRT2) (cytochrome P450 OleT [4]; [11]): 10 ± 2 s⁻¹
- Ole-II formation (Ole-I decay) rate constant (RRT1) (cytochrome P450 OleT [4]; [11]): 83 ± 3 s⁻¹

SMILES: [2H]C([2H])([2H])C([2H])([2H])C([2H])([2H])C([2H])([2H])C([2H])([2H])C([2H])([2H])C([2H])([2H])C([2H])([2H])C([2H])([2H])C([2H])([2H])C([2H])([2H])C(=O)O [LA-d23]
- Ole-II decay rate constant (RRT2) (cytochrome P450 OleT [4]; [12]): 10.4 ± 0.5 s⁻¹
- Ole-II formation (RRT1) (cytochrome P450 OleT [4]; [12]): 105 ± 10 s⁻¹
- Ole-II decay rate constant (RRT2) (cytochrome P450 OleT [4]; [11]): 12.5 ± 0.6 s⁻¹
- Ole-II formation (Ole-I decay) rate constant (RRT1) (cytochrome P450 OleT [4]; [11]): 66 ± 3 s⁻¹

- product yield (%) ring-closed (cytochrome P450 OleT [5]; in the presence of DA-d19): 41.9% and 40.1%
- product yield (%) ring-opened (cytochrome P450 OleT [5]; in the presence of DA-d19): 58.1% and 59.9%
- radical lifetime (cytochrome P450 OleT [5]; per trial, from product ratio and krearr = 3 × 10^11 s−1): 2.4 ps
SMILES: CC1CC1c1ccccc1 (centres unmarked) [methylcyclopropane]

- radical lifetime (cytochrome P450 OleT [5]; from averaged ratio of rearranged products to norcaranol (G + E)): ~ 35 ps
- product yield (%) F (cytochrome P450 OleT [5]; in the presence of DA-d19): 1.9%
- product yield (%) I (cytochrome P450 OleT [5]; in the presence of DA-d19): 0.55%
- product yield (%) C (cytochrome P450 OleT [5]; in the presence of DA-d19, 4-hydroxy-2-norcarene): 3.8%
- product yield (%) cation (cytochrome P450 OleT [5]; in the presence of DA-d19, cation-rearranged product 3-cycloheptenol (A)): 2.6% and 1.4%
- product yield (%) E (cytochrome P450 OleT [5]; in the presence of DA-d19, endo-2-norcaranol): 51.5% and 47.6%
- product yield (%) G (cytochrome P450 OleT [5]; in the presence of DA-d19, exo-2-norcaranol): 38.9% and 33.4%
- product yield (%) radical (cytochrome P450 OleT [5]; in the presence of DA-d19, radical-rearranged product 3-hydroxymethylcyclohexene (D)): 0.75% and 0.47%
- radical lifetime (cytochrome P450 OleT [5]; per trial, from product ratio and krearr = 2 × 10^8 s−1): 42 ps and 29 ps
SMILES: C1CCC2CC2C1 (centres unmarked) [norcarane, bicyclo[4.1.0]heptane]
